According to US12390451B2, “Small molecule inhibitor of the JAK family of kinases” (Janssen Pharmaceutica NV, priority 2021, dated 2025):
Where two headings read alike, the source gives them in different places.

Tests used:
[1] = biological target: T1, JAK1/Tyk2 (Mus musculus, UniProt P52332+Q9R117); assay: IFNα-induced pSTAT-3 in murine whole blood; format: cell-based
T1 construct: endogenous in cells; host or cells: murine whole blood
Description: (§1) Mouse whole blood IC50 values were also generated to build an understanding of the relationship between systemic exposures and target engagement in murine models. In murine whole blood, the in vitro activity of compound of Formula I in the inhibition of IFNα-(JAK1/Tyk2), IL-21-(JAK1/3), and IL-12-(JAK2/Tyk2) induced pSTAT responses in murine whole blood was measured. […] No reliable IC50 could be reported for inhibition of IL-12 induced pSTAT-4 in murine whole blood.

[2] = biological target: T2, JAK1/Tyk2 (Homo sapiens, UniProt P23458+P29597); assay: IFNα-induced pSTAT-3 in human whole blood; format: cell-based; conditions: mean
T2 construct: endogenous in cells; host or cells: human whole blood
Description: Compound of Formula I presents low levels of systemic exposure after oral administration. To understand the relationship between systemic exposure and target engagement in human studies, the inhibition of cytokine-induced pSTAT-3 in human whole blood was measured with such compound. In human whole blood, compound of Formula I in a concentration-dependent manner inhibited the JAK1, JAK2, JAK3, and Tyk2 homo- and heterodimers downstream of IFNα (JAK1/Tyk2), thrombopoietin (TPO) (JAK2/JAK2), and IL-21 (JAK1/JAK3) signaling.

[3] = Serum and colon concentrations in explant studies SS-1 and SS-2; format: in vivo, C57BL/6 mice; conditions: for concentration at 4 h: C57BL/6, mouse, po
Description: C57BL/6 mice (6 to 8 weeks old) were randomized by weight and assigned to various treatment groups for each study. Mice were dosed orally with indicated doses of compound of Formula I. At the termination of the study, blood was collected via cardiocentesis, serum and washed proximal colon was prepared for PK analysis.
The high colonic and low systemic exposure observed for compound of Formula I implicate the role for colonic drug levels as the key driver of the observed pharmacology.
Data are presented as mean±SEM; N=5/group. BLOQ, below limit of quantification.

[4] = biological target: T3, JAK1/3 (Mus musculus, UniProt P52332+Q62137); assay: IL-21-induced pSTAT-3 in murine whole blood; format: cell-based
T3 construct: endogenous in cells; host or cells: murine whole blood
Description: as §1

[5] = Tissue distribution in rats after oral administration; format: in vivo, male Sprague-Dawley rats; conditions: PO 25 mg/kg; for concentration at 0.5 h / concentration at 1 h / concentration at 2 h / concentration at 3 h / concentration at 5 h / concentration at 7 h / concentration at 24 h: male, Sprague-Dawley, rat
Description: Preliminary tissue distribution studies were conducted in male Sprague-Dawley rats (N=3/time point) at 0.5, 1, 2, 3, 5, 7, and 24 hours following oral administration of compound of Formula I at a dose of 25 mg/kg. The following tissues were harvested for compound concentration analysis: liver, kidney, brain, muscle, epididymis fat, duodenum, jejunum, ileum, colon (both lumen content and tissue), and plasma. The results of this study indicated low systemic exposure and high local concentrations (intestinal tract).

[6] = 1 h, BLOQ 0.5 ng/mL of tissue homogenate
[7] = 2 h, BLOQ 0.5 ng/mL of tissue homogenate
[8] = 3 h, BLOQ 0.5 ng/mL of tissue homogenate
[9] = 5 h, BLOQ 0.5 ng/mL of tissue homogenate
[10] = 24 h, BLOQ 0.5 ng/mL of tissue homogenate

T3 sequence (P52332 whole entry): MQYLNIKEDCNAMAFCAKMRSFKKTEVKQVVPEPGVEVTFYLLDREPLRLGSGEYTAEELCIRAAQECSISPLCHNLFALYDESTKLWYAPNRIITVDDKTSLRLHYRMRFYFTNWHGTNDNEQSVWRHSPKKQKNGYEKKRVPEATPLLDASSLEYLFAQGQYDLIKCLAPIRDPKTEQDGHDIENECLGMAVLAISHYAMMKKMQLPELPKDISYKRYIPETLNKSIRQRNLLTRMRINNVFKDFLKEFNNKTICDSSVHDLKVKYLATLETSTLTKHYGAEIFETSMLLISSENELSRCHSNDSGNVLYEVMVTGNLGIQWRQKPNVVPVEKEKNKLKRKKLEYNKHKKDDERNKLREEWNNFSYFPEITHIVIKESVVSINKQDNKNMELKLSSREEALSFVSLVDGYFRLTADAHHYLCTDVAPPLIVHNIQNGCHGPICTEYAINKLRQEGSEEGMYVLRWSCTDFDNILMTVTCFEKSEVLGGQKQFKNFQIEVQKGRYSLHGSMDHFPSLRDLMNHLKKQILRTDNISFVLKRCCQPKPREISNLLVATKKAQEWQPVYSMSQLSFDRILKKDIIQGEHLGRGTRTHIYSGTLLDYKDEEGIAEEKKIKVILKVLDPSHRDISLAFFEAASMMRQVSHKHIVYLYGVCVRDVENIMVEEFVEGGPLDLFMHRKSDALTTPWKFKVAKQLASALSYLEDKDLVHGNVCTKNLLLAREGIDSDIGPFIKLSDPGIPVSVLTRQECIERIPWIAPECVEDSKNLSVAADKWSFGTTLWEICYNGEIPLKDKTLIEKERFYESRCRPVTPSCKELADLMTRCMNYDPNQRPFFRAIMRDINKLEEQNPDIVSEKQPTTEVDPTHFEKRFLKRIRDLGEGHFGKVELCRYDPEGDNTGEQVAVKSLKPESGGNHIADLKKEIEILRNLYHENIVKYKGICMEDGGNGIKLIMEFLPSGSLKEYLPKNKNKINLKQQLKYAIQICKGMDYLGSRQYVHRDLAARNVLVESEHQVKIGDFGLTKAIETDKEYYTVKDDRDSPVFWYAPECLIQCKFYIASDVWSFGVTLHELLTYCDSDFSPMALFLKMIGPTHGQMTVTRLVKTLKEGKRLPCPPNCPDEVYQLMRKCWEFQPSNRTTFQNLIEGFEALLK
T3 sequence (Q62137 whole entry): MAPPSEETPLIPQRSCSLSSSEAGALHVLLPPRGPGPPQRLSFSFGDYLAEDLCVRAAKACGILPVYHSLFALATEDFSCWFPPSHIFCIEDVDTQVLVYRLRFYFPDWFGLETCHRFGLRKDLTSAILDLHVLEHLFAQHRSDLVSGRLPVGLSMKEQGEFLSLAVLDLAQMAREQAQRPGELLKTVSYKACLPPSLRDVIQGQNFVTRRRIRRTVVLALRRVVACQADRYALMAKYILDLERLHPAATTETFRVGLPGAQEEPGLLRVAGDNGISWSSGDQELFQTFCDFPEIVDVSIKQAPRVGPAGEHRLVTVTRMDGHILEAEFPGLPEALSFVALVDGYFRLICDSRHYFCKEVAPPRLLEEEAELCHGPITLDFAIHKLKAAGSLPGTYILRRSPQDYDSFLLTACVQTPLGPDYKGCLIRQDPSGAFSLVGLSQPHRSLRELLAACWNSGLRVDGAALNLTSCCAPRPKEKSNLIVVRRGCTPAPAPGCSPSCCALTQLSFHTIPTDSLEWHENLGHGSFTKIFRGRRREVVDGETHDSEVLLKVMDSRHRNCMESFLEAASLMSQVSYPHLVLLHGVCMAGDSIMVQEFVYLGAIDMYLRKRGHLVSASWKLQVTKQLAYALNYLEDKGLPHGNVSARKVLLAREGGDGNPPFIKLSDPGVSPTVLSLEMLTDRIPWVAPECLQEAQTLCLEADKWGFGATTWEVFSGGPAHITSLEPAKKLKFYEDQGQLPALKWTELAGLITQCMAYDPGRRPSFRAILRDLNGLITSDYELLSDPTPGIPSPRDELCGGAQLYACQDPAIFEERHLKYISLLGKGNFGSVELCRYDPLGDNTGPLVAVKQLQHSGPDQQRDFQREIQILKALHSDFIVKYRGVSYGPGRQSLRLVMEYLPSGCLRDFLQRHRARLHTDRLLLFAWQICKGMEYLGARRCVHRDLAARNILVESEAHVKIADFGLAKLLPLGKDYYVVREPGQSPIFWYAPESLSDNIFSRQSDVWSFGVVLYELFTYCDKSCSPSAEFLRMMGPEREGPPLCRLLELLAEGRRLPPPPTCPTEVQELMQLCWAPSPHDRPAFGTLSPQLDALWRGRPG
T3 sequence (Q9JHX3 20-529 partner): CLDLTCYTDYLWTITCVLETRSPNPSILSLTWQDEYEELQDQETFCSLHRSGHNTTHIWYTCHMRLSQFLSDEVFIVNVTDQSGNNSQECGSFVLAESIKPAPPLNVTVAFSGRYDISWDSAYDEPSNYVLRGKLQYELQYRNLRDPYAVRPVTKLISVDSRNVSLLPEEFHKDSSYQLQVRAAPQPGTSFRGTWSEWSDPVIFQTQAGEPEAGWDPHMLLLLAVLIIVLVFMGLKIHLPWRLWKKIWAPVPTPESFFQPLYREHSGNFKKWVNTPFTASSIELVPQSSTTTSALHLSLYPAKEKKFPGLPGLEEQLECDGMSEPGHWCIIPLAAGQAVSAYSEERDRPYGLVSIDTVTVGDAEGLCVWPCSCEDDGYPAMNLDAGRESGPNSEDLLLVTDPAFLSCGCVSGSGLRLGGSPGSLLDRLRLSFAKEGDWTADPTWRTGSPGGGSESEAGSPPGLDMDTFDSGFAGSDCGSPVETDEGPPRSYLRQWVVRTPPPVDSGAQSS
T3 sequence (P34902 23-369 partner): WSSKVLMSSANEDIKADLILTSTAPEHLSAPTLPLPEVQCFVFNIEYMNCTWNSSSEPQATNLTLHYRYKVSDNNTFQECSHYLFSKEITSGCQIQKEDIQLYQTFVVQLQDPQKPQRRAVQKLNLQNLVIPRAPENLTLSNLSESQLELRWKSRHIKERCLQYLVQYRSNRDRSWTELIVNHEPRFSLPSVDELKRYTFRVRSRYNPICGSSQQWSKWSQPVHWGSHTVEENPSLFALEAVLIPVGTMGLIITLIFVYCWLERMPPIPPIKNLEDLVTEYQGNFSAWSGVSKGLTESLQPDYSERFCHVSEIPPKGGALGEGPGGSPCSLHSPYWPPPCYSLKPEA

IC50 [1]: 299 nM | IC50 [2]: 105 nM | concentration at 4 h ([3]; colon, 0.25 mg/kg, SS-1, mice, 4 hours post oral dose 0.25 mg/kg, mean±SEM, read-out: Colon concentration): 446 ± 51.5 ng/g | concentration at 4 h ([3]; colon, 0.25 mg/kg, SS-2, mice, 4 hours post oral dose 0.25 mg/kg, mean±SEM, read-out: Colon concentration): 262 ± 30.5 ng/g | concentration at 4 h ([3]; colon, 2.5 mg/kg, SS-1, mice, 4 hours post oral dose 2.5 mg/kg, mean±SEM, read-out: Colon concentration): 2840 ± 716 ng/g | concentration at 4 h ([3]; colon, 2.5 mg/kg, SS-2, mice, 4 hours post oral dose 2.5 mg/kg, mean±SEM, read-out: Colon concentration): 1320 ± 270 ng/g | concentration at 4 h ([3]; colon, 5 mg/kg, SS-1, mice, 4 hours post oral dose 5 mg/kg, mean±SEM, read-out: Colon concentration): 4630 ± 705 ng/g | concentration at 4 h ([3]; colon, 5 mg/kg, SS-2, mice, 4 hours post oral dose 5 mg/kg, mean±SEM, read-out: Colon concentration): 4670 ± 953 ng/g | concentration at 4 h ([3]; colon, 25 mg/kg, SS-1, mice, 4 hours post oral dose 25 mg/kg, mean±SEM, read-out: Colon concentration): 27500 ± 6130 ng/g | concentration at 4 h ([3]; colon, 25 mg/kg, SS-2, mice, 4 hours post oral dose 25 mg/kg, mean±SEM, read-out: Colon concentration): 22900 ± 4150 ng/g | concentration at 4 h ([3]; serum, 5 mg/kg, SS-2, mice, 4 hours post oral dose 5 mg/kg, mean±SEM, read-out: Serum concentration): 10.3 ± 6.9 nM | concentration at 4 h ([3]; serum, 25 mg/kg, SS-1, mice, 4 hours post oral dose 25 mg/kg, mean±SEM, read-out: Serum concentration): 4.9 ± 2.1 nM | concentration at 4 h ([3]; serum, 25 mg/kg, SS-2, mice, 4 hours post oral dose 25 mg/kg, mean±SEM, read-out: Serum concentration): 6.3 ± 2.9 nM | concentration at 4 h ([3]; serum, SS-1 and SS-2, all oral doses, 4 hours post dose, read-out: systemic (serum) exposure): ≤ 10.3 nM | Serum concentration ([3]; SS-1, mice, 4 hours post oral dose 0.25 mg/kg, mean±SEM): BLOQ | Serum concentration ([3]; SS-1, mice, 4 hours post oral dose 2.5 mg/kg, mean±SEM): BLOQ | Serum concentration ([3]; SS-1, mice, 4 hours post oral dose 5 mg/kg, mean±SEM): BLOQ | Colon concentration ([3]; SS-1, mice, 4 hours post oral dose 25 mg/kg, mean±SEM, 25 mg/kg): 27488.1 ± 6128.6 ng/g | Serum concentration ([3]; SS-2, mice, 4 hours post oral dose 0.25 mg/kg, mean±SEM): BLOQ | Serum concentration ([3]; SS-2, mice, 4 hours post oral dose 2.5 mg/kg, mean±SEM): BLOQ | Colon concentration ([3]; SS-2, mice, 4 hours post oral dose 25 mg/kg, mean±SEM, 25 mg/kg): 22929.6 ± 4146.6 ng/g | IC50 [4]: 415 nM | Brain concentration [5, 6]: BLOQ^(a) | Fat concentration [5, 6]: BLOQ^(a) | Kidney concentration ([5]; 1 h, SD NA): 42.2 ng/g | Plasma concentration ([5]; 1 h, SD NA): 5.8 ng/mL | Brain concentration [5, 7]: BLOQ^(a) | Fat concentration [5, 7]: BLOQ^(a) | Muscle concentration [5, 7]: BLOQ^(a) | Brain concentration [5, 8]: BLOQ^(a) | Muscle concentration [5, 8]: BLOQ^(a) | Ileum Content concentration ([5]; 3 h, average, N = 3): 1,402,241 ng/mL | Brain concentration [5, 9]: BLOQ^(a) | Fat concentration [5, 9]: BLOQ^(a) | Muscle concentration [5, 9]: BLOQ^(a) | Brain concentration ([5]; 7 h, BLOQ 0.5 ng/mL of tissue homogenate): BLOQ^(a) | Plasma concentration ([5]; 24 h, BLOQ 0.5 ng/mL): BLOQ^(a) | Brain concentration [5, 10]: BLOQ^(a) | Fat concentration [5, 10]: BLOQ^(a) | Kidney concentration [5, 10]: BLOQ^(a) | Muscle concentration [5, 10]: BLOQ^(a) | concentration at 0.5 h ([5]; brain, average ±SD, read-out: Brain concentration): 3.5 ± 3.1 ng/g | concentration at 0.5 h ([5]; colon lumen content, average, N = 3, read-out: Colon Content concentration): 167 ng/mL | concentration at 1 h ([5]; colon lumen content, 1 h, average, N = 3, read-out: Colon Content concentration): 135 ng/mL | concentration at 2 h ([5]; colon lumen content, 2 h, average, N = 3, read-out: Colon Content concentration): 19100 ng/mL | concentration at 3 h ([5]; colon lumen content, 3 h, average, N = 3, read-out: Colon Content concentration): 304 µg/mL | concentration at 5 h ([5]; colon lumen content, 5 h, average, N = 3, read-out: Colon Content concentration): 830 µg/mL | concentration at 7 h ([5]; colon lumen content, 7 h, average, N = 3, read-out: Colon Content concentration): 834 µg/mL | concentration at 24 h ([5]; colon lumen content, 24 h, average, N = 3, read-out: Colon Content concentration): 7590 ng/mL | concentration at 0.5 h ([5]; colon tissue, average, N = 3, read-out: Colon Tissue concentration): 946 ng/g | concentration at 1 h ([5]; colon tissue, 1 h, average, N = 3, read-out: Colon Tissue concentration): 383 ng/g | concentration at 2 h ([5]; colon tissue, 2 h, average, N = 3, read-out: Colon Tissue concentration): 2190 ng/g | concentration at 3 h ([5]; colon tissue, 3 h, average, N = 3, read-out: Colon Tissue concentration): 12400 ng/g | concentration at 5 h ([5]; colon tissue, 5 h, average, N = 3, read-out: Colon Tissue concentration): 33500 ng/g | concentration at 7 h ([5]; colon tissue, 7 h, average, N = 3, read-out: Colon Tissue concentration): 36700 ng/g | concentration at 24 h ([5]; colon tissue, 24 h, average, N = 3, read-out: Colon Tissue concentration): 353 ng/g
SMILES: CC(C)(O)CNC(=O)Cc1nc2cnc3[nH]ccc3c2n1[C@H]1CC[C@H](CC#N)CC1 [Compound of Formula I, 2-(1-((1r,4r)-4-(Cyanomethyl)cyclohexyl)-1,6-dihydroimidazo[4,5-d]pyrrolo[2,3-b]pyridin-2-yl)-N-(2-hydroxy-2-methylpropyl)acetamide]
